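Interpolation was linear, between the two tested concentrations surrounding the appropriate level; five concentrations were tested over 48 hours in 96-well plates. Here, GI50 denotes the concentration required for 50% inhibition of growth.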 Activity calls are given as the source filed them. No stated cut-off is given here; in the data, active = GI50 up to about 1.1 µM and inactive = higher.
Assays:
Experiment in all cases: inhibition of tumour cell growth, NCI panel, 48 h
UACC-257 = test system: UACC-257
UO-31 = test system: UO-31
786-0 = test system: 786-0
UACC-62 = test system: UACC-62
RXF 393 = test system: RXF 393
SNB-19 = test system: SNB-19
OVCAR-8 = test system: OVCAR-8
OVCAR-4 = test system: OVCAR-4
U-251 = test system: U-251
SN12C = test system: SN12C
HCT-116 = test system: HCT-116
K562 = test system: K562
SNB-75 = test system: SNB-75
LOX IMVI = test system: LOX IMVI
A549 = test system: A549
SR = test system: SR

Measured: GI50

O=C(O)[C@H](NS(=O)(=O)c1ccc(F)cc1)c1ccccc1
inactive: UACC-257 > 100 µM | UO-31 > 100 µM | 786-0 > 100 µM | UACC-62 > 100 µM | RXF 393 > 100 µM | SNB-19 > 100 µM | OVCAR-8 > 100 µM | OVCAR-4 > 100 µM | U-251 > 100 µM | SN12C > 100 µM | HCT-116 > 100 µM | K562 > 100 µM | SNB-75 > 100 µM | LOX IMVI > 100 µM | A549 > 100 µM

COC(=O)C1C(C(=O)OC)C2C(=O)C3C(C(=O)OC)C(C(=O)OC)C3C(=O)C12 (stereo unspecified)
inactive: UACC-257 > 100 µM | 786-0 > 100 µM | RXF 393 25.4 µM | SNB-19 > 100 µM | OVCAR-8 > 100 µM | OVCAR-4 > 100 µM | U-251 > 100 µM | SN12C > 100 µM | SR > 100 µM | HCT-116 > 100 µM | K562 > 100 µM | LOX IMVI > 100 µM | A549 > 100 µM

CN/C(=N/C#N)NCc1ccccc1
inactive: UACC-257 > 100 µM | UO-31 > 100 µM | 786-0 > 100 µM | SNB-19 > 100 µM | OVCAR-8 > 100 µM | OVCAR-4 > 100 µM | U-251 > 100 µM | SN12C > 100 µM | SR > 100 µM | HCT-116 > 100 µM | SNB-75 > 100 µM | LOX IMVI > 100 µM | A549 > 100 µM

COc1ccc(NC(=O)/C(=C/c2ccccc2)C(C)=O)cc1
inactive: UACC-257 13.3 µM | UO-31 15.4 µM | 786-0 14.8 µM | UACC-62 7.89 µM | SNB-19 16.2 µM | OVCAR-8 18.1 µM | OVCAR-4 11.6 µM | U-251 15.2 µM | SN12C 14.4 µM | K562 12.5 µM | SNB-75 7.11 µM | LOX IMVI 10.7 µM | A549 22.2 µM

C=C[Si](C)(C)COC(=O)/C(C#N)=C/C=C/c1ccccc1
inactive: UACC-257 > 100 µM | UO-31 > 100 µM | 786-0 > 100 µM | UACC-62 88.7 µM | RXF 393 40.6 µM | SNB-19 > 100 µM | OVCAR-8 > 100 µM | OVCAR-4 > 100 µM | U-251 > 100 µM | SN12C > 100 µM | SR 25.2 µM | HCT-116 > 100 µM | K562 59 µM | SNB-75 34.6 µM | A549 > 100 µM

CC12CC(=O)NN=C1c1ccccc1C2 (stereo unspecified)
inactive: UACC-257 > 100 µM | UO-31 > 100 µM | 786-0 > 100 µM | UACC-62 > 100 µM | RXF 393 > 100 µM | SNB-19 > 100 µM | OVCAR-8 > 100 µM | U-251 > 100 µM | SN12C > 100 µM | HCT-116 > 100 µM | K562 > 100 µM | SNB-75 > 100 µM | LOX IMVI > 100 µM | A549 > 100 µM

Cc1nc2ccccc2nc1CC(=O)C(=O)Nc1ccc(Cl)cc1Cl
inactive: UACC-257 > 100 µM | UO-31 > 100 µM | 786-0 > 100 µM | UACC-62 > 100 µM | RXF 393 > 100 µM | SNB-19 > 100 µM | OVCAR-8 > 100 µM | OVCAR-4 > 100 µM | U-251 > 100 µM | SN12C > 100 µM | HCT-116 > 100 µM | K562 > 100 µM | SNB-75 > 100 µM | LOX IMVI > 100 µM | A549 > 100 µM

CC1OC(OC2C(CO)OC(O[C@H]3CC[C@@]4(C)C(=CC[C@H]5[C@@H]6C[C@@H]7O[C@]8(CC[C@@H](C)CN8)[C@@H](C)[C@@H]7[C@@]6(C)CC[C@@H]54)C3)C(O)C2O)C(O)C(O)C1O (stereo partly specified)
inactive: UACC-257 > 100 µM | UO-31 > 100 µM | 786-0 > 100 µM | UACC-62 > 100 µM | RXF 393 > 100 µM | SNB-19 > 100 µM | OVCAR-8 > 100 µM | OVCAR-4 > 100 µM | U-251 > 100 µM | SN12C > 100 µM | HCT-116 > 100 µM | K562 > 100 µM | SNB-75 42.1 µM | LOX IMVI > 100 µM | A549 > 100 µM

COc1cc2cccc(/N=C\c3cccc(OC)c3OC(C)C)c2cc1OC
inactive: UACC-257 20.8 µM | UO-31 30.1 µM | 786-0 18.5 µM | UACC-62 19.6 µM | OVCAR-8 21.5 µM | OVCAR-4 18.7 µM | U-251 19.7 µM | SN12C 40.1 µM | K562 15.6 µM | SNB-75 21.7 µM | A549 29.7 µM

COc1ccc([N+]2=NC(c3ccc([N+](=O)[O-])cc3)=NN(c3ccccc3)C2)cc1
inactive: UACC-257 30.1 µM | UO-31 26.9 µM | 786-0 > 100 µM | RXF 393 > 100 µM | SNB-19 71.9 µM | OVCAR-8 > 10 µM | OVCAR-4 22.6 µM | U-251 37.3 µM | SN12C > 100 µM | SR 32.9 µM | HCT-116 46 µM | K562 21 µM | LOX IMVI 30.1 µM | A549 71 µM

Cc1cccc(-n2c(N)c(-c3nc4ccccc4[nH]3)sc2=S)c1
inactive: UACC-257 28.6 µM | UO-31 33 µM | 786-0 24.4 µM | UACC-62 18.4 µM | RXF 393 33.3 µM | SNB-19 36.6 µM | OVCAR-8 28.4 µM | OVCAR-4 43.4 µM | U-251 21.8 µM | SN12C 25.3 µM | K562 29.2 µM | SNB-75 50 µM | LOX IMVI 26.8 µM | A549 28.2 µM

COc1ccc(C2C(C(=O)O)=C(CO)Oc3cc4c(cc32)OCO4)c(OC)c1 (stereo unspecified)
inactive: UACC-257 > 100 µM | UO-31 36.9 µM | 786-0 > 100 µM | UACC-62 57.3 µM | RXF 393 > 100 µM | SNB-19 70.5 µM | OVCAR-8 98.4 µM | OVCAR-4 78 µM | U-251 81.1 µM | SN12C 43.1 µM | HCT-116 78.2 µM | K562 87.5 µM | SNB-75 > 100 µM | LOX IMVI 45.1 µM | A549 70.3 µM

CC(C)=CC(=O)CC(=O)C(=O)Nc1ccc(C)c(C)c1
inactive: UACC-257 > 100 µM | UO-31 > 100 µM | 786-0 > 100 µM | UACC-62 > 100 µM | SNB-19 > 100 µM | U-251 > 100 µM | SN12C > 100 µM | SR > 100 µM | HCT-116 > 100 µM | K562 > 100 µM | SNB-75 > 100 µM | LOX IMVI > 100 µM | A549 > 100 µM

O/N=C1/C(=C/c2ccc(OCc3ccccc3)cc2)CCCC1C(NO)c1ccc(OCc2ccccc2)cc1 (stereo unspecified)
inactive: UACC-257 10 µM | UO-31 14.6 µM | 786-0 18.5 µM | RXF 393 3.42 µM | SNB-19 80.9 µM | OVCAR-8 26.7 µM | OVCAR-4 6.41 µM | U-251 10.5 µM | SN12C 3.31 µM | SR 11.8 µM | HCT-116 8.97 µM | K562 9.53 µM | SNB-75 34 µM | LOX IMVI 4.05 µM | A549 > 100 µM

O=[N+]([O-])c1ccc(C2=Nn3c(nnc3-c3ccccc3)SC2)o1
inactive: UACC-257 20 µM | 786-0 20.8 µM | UACC-62 19.5 µM | RXF 393 19.3 µM | SNB-19 85.5 µM | OVCAR-8 19.3 µM | OVCAR-4 19.6 µM | U-251 17.4 µM | SN12C 15.7 µM | HCT-116 17.6 µM | K562 20.4 µM | SNB-75 20.4 µM | A549 35.2 µM

Cc1cc2nc3c(=O)[nH]c(=O)nc-3n(CC(O)C(O)C(O)CO)c2cc1N (stereo unspecified)
inactive: UO-31 > 100 µM | 786-0 > 100 µM | UACC-62 > 100 µM | SNB-19 > 100 µM | OVCAR-8 > 100 µM | OVCAR-4 > 100 µM | SN12C > 100 µM | HCT-116 > 100 µM | K562 > 100 µM | SNB-75 > 100 µM | LOX IMVI > 100 µM | A549 > 100 µM

C/C=N\N1C(=O)c2ccccc2C1=O
inactive: UACC-257 > 100 µM | UO-31 > 100 µM | 786-0 > 100 µM | UACC-62 > 100 µM | RXF 393 > 100 µM | SNB-19 > 100 µM | OVCAR-8 > 100 µM | OVCAR-4 > 100 µM | SN12C > 100 µM | SR > 100 µM | HCT-116 > 100 µM | K562 > 100 µM | SNB-75 > 100 µM | LOX IMVI > 100 µM | A549 > 100 µM

CC(=O)Nc1[nH]n(C)c(=O)c1-c1nnc(C)s1
inactive: UACC-257 > 100 µM | UO-31 > 100 µM | 786-0 > 100 µM | RXF 393 > 100 µM | SNB-19 > 100 µM | OVCAR-8 > 100 µM | OVCAR-4 > 100 µM | U-251 > 100 µM | SN12C > 100 µM | SR > 100 µM | HCT-116 > 100 µM | K562 > 100 µM | SNB-75 > 100 µM | LOX IMVI > 100 µM | A549 > 100 µM

CCCN(CCC)C(=O)Cc1c2n(c3ccccc13)Cc1ccccc1-2
inactive: UACC-257 > 100 µM | UO-31 35.1 µM | 786-0 57 µM | UACC-62 21.1 µM | RXF 393 24.4 µM | SNB-19 > 100 µM | OVCAR-8 > 100 µM | OVCAR-4 49.5 µM | U-251 > 100 µM | SN12C > 100 µM | SR 33.1 µM | HCT-116 28.8 µM | K562 > 100 µM | SNB-75 6.62 µM | LOX IMVI 83.4 µM | A549 27.9 µM

Source: ChEMBL document CHEMBL1201862, “PubChem BioAssay data set” (2004)
